Source: article PMC3561686 (Basic & Clinical Pharmacology & Toxicology, 2012)
Read-outs that look alike come from different tables or passages of the source.

Columns and labels:
[1] = for Cmax: human, in vivo, prasugrel alone session, dried blood spots, mean (S.D.); for AUC ratio (prasugrel + ritonavir versus prasugrel alone): AUC0–6 hr; for AUC ratio (prasugrel + ritonavir versus prasugrel alone) / Cmax ratio (prasugrel + ritonavir versus prasugrel alone): mean ratio
[2] = molecular target: CYP2C9 (Homo sapiens, UniProt P11712); conditions: mean ratio
[3] = molecular target: CYP2C19 (Homo sapiens, UniProt P33261); experiment: CYP2C19 phenotyping: omeprazole metabolic ratio in plasma; assay type: in vivo; conditions: mean ratio
[4] = test system: CYP3A; conditions: cited from earlier work
[5] = test system: human liver microsomes; conditions: cited from earlier work
[6] = read-out: expected Cmax; after a 100 mg dose; cited from earlier work

Sequence of CYP2C9 (P11712 whole entry): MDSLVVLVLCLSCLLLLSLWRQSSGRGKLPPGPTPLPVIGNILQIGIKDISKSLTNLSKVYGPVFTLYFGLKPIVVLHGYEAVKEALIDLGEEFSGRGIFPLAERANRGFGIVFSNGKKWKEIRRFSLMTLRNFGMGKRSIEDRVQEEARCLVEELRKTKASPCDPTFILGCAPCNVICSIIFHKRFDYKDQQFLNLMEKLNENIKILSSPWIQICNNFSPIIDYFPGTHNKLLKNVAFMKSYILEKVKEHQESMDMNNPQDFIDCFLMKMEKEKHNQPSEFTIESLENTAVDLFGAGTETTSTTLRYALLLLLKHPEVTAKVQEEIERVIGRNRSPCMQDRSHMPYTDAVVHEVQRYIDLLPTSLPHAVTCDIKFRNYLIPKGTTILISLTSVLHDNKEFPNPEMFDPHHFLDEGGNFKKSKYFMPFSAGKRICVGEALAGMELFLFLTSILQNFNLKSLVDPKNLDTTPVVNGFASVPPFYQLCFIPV
Sequence of CYP2C19 (P33261 whole entry): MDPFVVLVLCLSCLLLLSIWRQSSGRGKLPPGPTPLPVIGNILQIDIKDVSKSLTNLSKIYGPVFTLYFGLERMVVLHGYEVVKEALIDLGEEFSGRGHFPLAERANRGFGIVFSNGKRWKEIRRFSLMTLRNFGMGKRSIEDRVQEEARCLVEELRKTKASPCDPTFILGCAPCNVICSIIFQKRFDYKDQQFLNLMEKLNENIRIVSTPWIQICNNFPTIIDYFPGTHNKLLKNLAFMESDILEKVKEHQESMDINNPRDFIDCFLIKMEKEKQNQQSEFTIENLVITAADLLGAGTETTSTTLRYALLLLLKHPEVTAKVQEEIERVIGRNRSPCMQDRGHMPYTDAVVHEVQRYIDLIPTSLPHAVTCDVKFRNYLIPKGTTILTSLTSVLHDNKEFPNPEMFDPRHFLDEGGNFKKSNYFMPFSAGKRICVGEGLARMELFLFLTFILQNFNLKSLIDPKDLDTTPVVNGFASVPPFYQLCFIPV

Structure (SMILES)	Cmax [1] [ng/mL]	AUC ratio (prasugrel + ritonavir versus prasugrel alone) [1]	Cmax ratio (prasugrel + ritonavir versus prasugrel alone) [1]	also measured
CC(NC(C)(C)C)C(=O)c1cccc(Cl)c1 (centres unmarked) [Bupropion, bupropion]	20.9			
CC(C(=O)O)c1ccc(-c2ccccc2)c(F)c1 (centres unmarked) [Flurbiprofen, flurbiprofen]	1140	0.95	0.98	Metabolic Ratio (OH flurbiprofen/flurbiprofen), ratio prasugrel + ritonavir versus prasugrel alone [2]: not affected
Cc1ncc2n1-c1ccc(Cl)cc1C(c1ccccc1F)=NC2 [Midazolam, midazolam]	0.17	26.5	6.1	AUC ratio (prasugrel + ritonavir versus prasugrel alone) ([1]; listed as midazolam): 26; Cmax ratio (prasugrel + ritonavir versus prasugrel alone) ([1]; listed as midazolam): 6
COc1ccc2[nH]c([S+]([O-])Cc3ncc(C)c(OC)c3C)nc2c1 (centres unmarked) [Omeprazole, omeprazole]	35.6	1.25	1.54	Metabolic Ratio (OH omeprazole/omeprazole), ratio prasugrel + ritonavir versus prasugrel alone [3]: not affected
CC(=O)N1CCN(c2ccc(OCC3COC(Cn4ccnc4)(c4ccc(Cl)cc4Cl)O3)cc2)CC1 (centres unmarked) [ketoconazole]				Change in prasugrel AM formation or the inhibition of platelet aggregation when prasugrel was administered with the drug [4]: no change
CC(C)c1nc(CN(C)C(=O)N[C@H](C(=O)N[C@@H](Cc2ccccc2)C[C@H](O)[C@H](Cc2ccccc2)NC(=O)OCc2cncs2)C(C)C)cs1 [ritonavir]				Inhibition of prasugrel bioactivation [5]: potent inhibitor; Cmax [6]: 1000 to 2000 nM
